Test results: ChEMBL document CHEMBL3508140 (2016)

Experiments:
[1] = AUC values (0-48 h) of 7-deoxy doxorubicin-aglycone in plasma following single intravenous doxorubicin at 10 mg.Kg-1 dose in female mouse bearing colon tumor; assay type: ADME, organism-based, BALB/c; parameters: time < 48 hr, dose 10 mg.Kg-1, dosed compound id 2.46809e+06, dosed compound name Doxorubicin, gender F, regimen Single, route intravenous, sampling time 48 h; conditions: in vivo
[2] = Detection of 7-deoxydoxorubicinol aglycone in plasma following single intravenous epirubicin at 10 mg.Kg-1 dose in female mouse bearing colon tumor; assay type: ADME, organism-based, BALB/c; conditions: in vivo
[3] = AUC values (0-48 h) of 7-deoxy epirubicinol aglycone in heart following single intravenous epirubicin at 10 mg.Kg-1 dose in female mouse bearing colon tumor; assay type: ADME, organism-based, BALB/c; conditions: in vivo
[4] = Recovery of 7-deoxy epirubicinol aglycone following intravenous epirubicin at 4 mg.Kg-1 dose in rabbit; assay type: ADME, organism-based, Oryctolagus cuniculus, New Zealand White, Plasma; conditions: in vivo
[5] = Recovery of 7-deoxy epirubicinol aglycone following intraperitoneal epirubicin at 4 mg.Kg-1 dose in mouse; assay type: ADME, organism-based, CD-1, Plasma; conditions: in vivo, ip
[6] = Detection of 7-deoxydoxorubicinol aglycone in heart following single intravenous epirubicin at 10 mg.Kg-1 dose in female mouse bearing colon tumor; assay type: ADME, organism-based, BALB/c; conditions: in vivo
[7] = Detection of 7-deoxydoxorubicinol aglycone in plasma following single intravenous doxorubicin at 10 mg.Kg-1 dose in female mouse bearing colon tumor; assay type: ADME, organism-based, BALB/c; parameters: dose 10 mg.Kg-1, dosed compound id 2.46809e+06, dosed compound name Doxorubicin, gender F, regimen Single, route intravenous, sampling time 48 h; conditions: in vivo
[8] = Recovery of 7-deoxy epirubicinol aglycone following intraperitoneal epirubicin at 4 mg.Kg-1 dose in hamster; assay type: ADME, organism-based, Cricetulus griseus, Plasma; conditions: chinese hamster, in vivo, ip
[9] = Detection of 7-deoxydoxorubicinol aglycone in heart following single intravenous doxorubicin at 10 mg.Kg-1 dose in female mouse bearing colon tumor; assay type: ADME, organism-based, BALB/c; parameters: dose 10 mg.Kg-1, dosed compound id 2.46809e+06, dosed compound name Doxorubicin, gender F, regimen Single, route intravenous, sampling time 48 h; conditions: in vivo
[10] = AUC values (0-48 h) of 7-deoxy doxorubicin-aglycone in tumor following single intravenous doxorubicin at 10 mg.Kg-1 dose in female mouse bearing colon tumor; assay type: ADME, organism-based, BALB/c, Neoplasm; parameters: time < 48 hr, dose 10 mg.Kg-1, dosed compound id 2.46809e+06, dosed compound name Doxorubicin, gender F, regimen Single, route intravenous, sampling time 48 h; conditions: in vivo
[11] = Detection of 7-deoxydoxorubicinol aglycone in tumor following single intravenous doxorubicin at 10 mg.Kg-1 dose in female mouse bearing colon tumor; assay type: ADME, organism-based, BALB/c, Neoplasm; parameters: dose 10 mg.Kg-1, dosed compound id 2.46809e+06, dosed compound name Doxorubicin, gender F, regimen Single, route intravenous, sampling time 48 h; conditions: in vivo
[12] = AUC values (0-48 h) of 7-deoxy epirubicinol aglycone in plasma following single intravenous epirubicin at 10 mg.Kg-1 dose in female mouse bearing colon tumor; assay type: ADME, organism-based, BALB/c; conditions: in vivo
[13] = AUC values (0-48 h) of 7-deoxy epirubicinol aglycone in tumor following single intravenous epirubicin at 10 mg.Kg-1 dose in female mouse bearing colon tumor; assay type: ADME, organism-based, BALB/c, Neoplasm; conditions: in vivo
[14] = AUC values (0-48 h) of 7-deoxy doxorubicin-aglycone in heart following single intravenous doxorubicin at 10 mg.Kg-1 dose in female mouse bearing colon tumor; assay type: ADME, organism-based, BALB/c; parameters: time < 48 hr, dose 10 mg.Kg-1, dosed compound id 2.46809e+06, dosed compound name Doxorubicin, gender F, regimen Single, route intravenous, sampling time 48 h; conditions: in vivo
[15] = Recovery of 7-deoxy epirubicinol aglycone following intravenous epirubicin at 4 mg.Kg-1 dose in rat; assay type: ADME, organism-based, SD, Plasma; conditions: in vivo
[16] = Detection of 7-deoxydoxorubicinol aglycone in tumor following single intravenous epirubicin at 10 mg.Kg-1 dose in female mouse bearing colon tumor; assay type: ADME, organism-based, BALB/c, Neoplasm; conditions: in vivo
[17] = Recovery of 7-deoxy epirubicinol aglycone following intravenous epirubicin at 1.5 mg.Kg-1 dose in man; assay type: ADME, organism-based, Plasma; conditions: human, in vivo
Homo sapiens [18] = organism: Homo sapiens; assay: Binding of epirubicin to plasma protein of human; assay type: cell-free
Oryctolagus cuniculus [19] = organism: Oryctolagus cuniculus; assay: Binding of 14C-epirubicin at 500 ng.ml-1 concentration to plasma protein of rabbit; assay type: cell-free; conditions: New Zealand White
Rattus norvegicus [20] = organism: Rattus norvegicus; assay: Binding of 14C-epirubicin at 1000 ng.ml-1 concentration to plasma protein of rat; assay type: cell-free; conditions: SD
Rattus norvegicus [21] = organism: Rattus norvegicus; assay: Binding of 14C-epirubicin at 0.164 ug-ml-1 concentration to plasma protein of rat; assay type: organism-based; parameters: conc 0.164 ug.ml-1, dosed compound id 2.46808e+06, dosed compound name, sampling time 30 min; conditions: SD, at 0.164 µg/mL
Homo sapiens [22] = organism: Homo sapiens; assay: Binding of epirubicin at 20-1000 ng.ml-1 concentration to plasma protein of human; assay type: cell-free
Rattus norvegicus [23] = organism: Rattus norvegicus; assay: Binding of 14C-epirubicin at 1.081 ug-ml-1 concentration to plasma protein of rat; assay type: cell-free; parameters: conc 1.081 ug.ml-1; conditions: SD, at 1.081 µg/mL
Homo sapiens [24] = organism: Homo sapiens; assay: Binding of 14C-epirubicin at 500 ng.ml-1 concentration to plasma protein of man; assay type: cell-free; parameters: gender
Oryctolagus cuniculus [25] = organism: Oryctolagus cuniculus; assay: Binding of 14C-epirubicin at 20 ng.ml-1 concentration to plasma protein of rabbit; assay type: cell-free; conditions: New Zealand White
Homo sapiens [26] = organism: Homo sapiens; assay: Binding of 14C-epirubicin at 100 ng.ml-1 concentration to plasma protein of man; assay type: cell-free; parameters: gender
Mus musculus [27] = organism: Mus musculus; assay: Binding of 14C-epirubicin at 1000 ng.ml-1 concentration to plasma protein of mouse; assay type: cell-free; conditions: CD-1
Canis lupus familiaris [28] = organism: Canis lupus familiaris; assay: Binding of 14C-epirubicin at 1000 ng.ml-1 concentration to plasma protein of dog; assay type: cell-free; conditions: Beagle
Mus musculus [29] = organism: Mus musculus; assay: Binding of 14C-epirubicin at 100 ng.ml-1 concentration to plasma protein of mouse; assay type: cell-free; conditions: CD-1
Rattus norvegicus [30] = organism: Rattus norvegicus; assay: Binding of 14C-epirubicin at 0.048 ug-ml-1 concentration to plasma protein of rat; assay type: organism-based; parameters: conc 0.048 ug.ml-1, dosed compound id 2.46808e+06, dosed compound name, sampling time 24 h; conditions: SD, at 0.048 µg/mL
Mus musculus [31] = organism: Mus musculus; assay: Binding of 14C-epirubicin at 500 ng.ml-1 concentration to plasma protein of mouse; assay type: cell-free; conditions: CD-1
Rattus norvegicus [32] = organism: Rattus norvegicus; assay: Binding of 14C-epirubicin at 0.077 ug-ml-1 concentration to plasma protein of rat; assay type: organism-based; parameters: conc 0.077 ug.ml-1, dosed compound id 2.46808e+06, dosed compound name, sampling time 6 h; conditions: SD, at 0.077 µg/mL
Rattus norvegicus [33] = organism: Rattus norvegicus; assay: Binding of 14C-epirubicin at 20 ng.ml-1 concentration to plasma protein of rat; assay type: cell-free; conditions: SD
Canis lupus familiaris [34] = organism: Canis lupus familiaris; assay: Binding of 14C-epirubicin at 100 ng.ml-1 concentration to plasma protein of dog; assay type: cell-free; conditions: Beagle
Oryctolagus cuniculus [35] = organism: Oryctolagus cuniculus; assay: Binding of 14C-epirubicin at 100 ng.ml-1 concentration to plasma protein of rabbit; assay type: cell-free; conditions: New Zealand White
Canis lupus familiaris [36] = organism: Canis lupus familiaris; assay: Binding of 14C-epirubicin at 500 ng.ml-1 concentration to plasma protein of dog; assay type: cell-free; conditions: Beagle
Mus musculus [37] = organism: Mus musculus; assay: Binding of 14C-epirubicin at 20 ng.ml-1 concentration to plasma protein of mouse; assay type: cell-free; conditions: CD-1
Rattus norvegicus [38] = organism: Rattus norvegicus; assay: Binding of 14C-epirubicin at 500 ng.ml-1 concentration to plasma protein of rat; assay type: cell-free; conditions: SD
Oryctolagus cuniculus [39] = organism: Oryctolagus cuniculus; assay: Binding of 14C-epirubicin at 1000 ng.ml-1 concentration to plasma protein of rabbit; assay type: cell-free; conditions: New Zealand White
Rattus norvegicus [40] = organism: Rattus norvegicus; assay: Binding of 14C-epirubicin at 100 ng.ml-1 concentration to plasma protein of rat; assay type: cell-free; conditions: SD
Rattus norvegicus [41] = organism: Rattus norvegicus; assay: Binding of 14C-epirubicin at 0.223 ug-ml-1 concentration to plasma protein of rat; assay type: cell-free; parameters: conc 0.223 ug.ml-1; conditions: SD, at 0.223 µg/mL
Rattus norvegicus [42] = organism: Rattus norvegicus; assay: Binding of 14C-epirubicin at 0.056 ug-ml-1 concentration to plasma protein of rat; assay type: cell-free; parameters: conc 0.056 ug.ml-1; conditions: SD, at 0.056 µg/mL
Homo sapiens [43] = organism: Homo sapiens; assay: Binding of 14C-epirubicin at 1000 ng.ml-1 concentration to plasma protein of man; assay type: cell-free; parameters: gender
Canis lupus familiaris [44] = organism: Canis lupus familiaris; assay: Binding of 14C-epirubicin at 20 ng.ml-1 concentration to plasma protein of dog; assay type: cell-free; conditions: Beagle

COc1cccc2c1C(=O)c1c(O)c3c(c(O)c1C2=O)C[C@@](O)(C(O)CO)CC3 (some centres undefined)
AUC [1]: 83.3 nmol·min/mL | Compound recovery [2]: OUTCOME = Observed | AUC [3]: 66 nmol·min/g | Compound recovery [4]: 4.2 10^-9M | Compound recovery [5]: 20 10^-9M | Compound recovery [6]: OUTCOME = Observed | Compound recovery [7]: OUTCOME = Observed | Compound recovery [8]: 21 10^-9M | Compound recovery [9]: OUTCOME = Observed | AUC [10]: 204 nmol·min/g | Compound recovery [11]: OUTCOME = Observed | AUC [12]: 53.9 nmol·min/mL | AUC [13]: 99 nmol·min/g | AUC [14]: 218 nmol·min/g | Compound recovery [15]: 4.2 10^-9M | Compound recovery [16]: OUTCOME = Observed | Compound recovery [17]: 25 10^-9M

COc1cccc2c1C(=O)c1c(O)c3c(c(O)c1C2=O)C[C@@](O)(C(=O)CO)C[C@@H]3O[C@H]1C[C@H](N)[C@@H](O)[C@H](C)O1
PPB (Homo sapiens [18]): 75% | PPB (Oryctolagus cuniculus [19]): 78.4% | PPB (Rattus norvegicus [20]): 78.7% | PPB (Rattus norvegicus [21]): 80.7% | PPB (Homo sapiens [22]): 77% | PPB (Rattus norvegicus [23]): 82.2% | PPB (Homo sapiens [24]): 77.3% | PPB (Oryctolagus cuniculus [25]): 78.5% | PPB (Homo sapiens [26]): 78.1% | PPB (Mus musculus [27]): 80.3% | PPB (Canis lupus familiaris [28]): 80.9% | PPB (Mus musculus [29]): 79.9% | PPB (Rattus norvegicus [30]): 88.2% | PPB (Mus musculus [31]): 80% | PPB (Rattus norvegicus [32]): 85.6% | PPB (Rattus norvegicus [33]): 79.1% | PPB (Canis lupus familiaris [34]): 81.2% | PPB (Oryctolagus cuniculus [35]): 70.2% | PPB (Canis lupus familiaris [36]): 80.7% | PPB (Mus musculus [37]): 76.5% | PPB (Rattus norvegicus [38]): 81.3% | PPB (Oryctolagus cuniculus [39]): 77.1% | PPB (Rattus norvegicus [40]): 82.8% | PPB (Rattus norvegicus [41]): 81% | PPB (Rattus norvegicus [42]): 81.7% | PPB (Homo sapiens [43]): 76.8% | PPB (Canis lupus familiaris [44]): 80.3%
